# Data: patent US20130005699A1, “METHODS AND PRODUCTS FOR TREATMENT OF DISEASES” (DMI ACQUISITION CORP., priority 2009, published 2013)
# Columns and labels:
# RhoA = test: Rho activation assay (GLISA) in retinal endothelial cells; format: cell-based, human
# Method: This experiment was performed using a commercially-available Rho activation assay (GLISA) purchased from Cytoskeleton, Denver, Colo., following the manufacturer's protocol. […] Test compounds diluted in HBSS were placed in the incubator to equilibrate before addition to the cells. Then, 150 μl of each test compound was added to the appropriate culture wells, and the plates were incubated in the incubator for an additional 15 minutes. Then, thrombin was added to appropriate wells. After 1 minute, the cells were washed one time with 1.5 ml phosphate buffered saline and were then lysed with 100 μl GLISA lysis buffer supplemented with protease inhibitors. The extracts were scraped, transferred to microcentrifuge tubes and transferred to ice to preserve the active form of RhoA. All extracts were then cleared of debris by spinning at 10,000 rpms for 2 minutes at 4° C. The supernatants were transferred to new tubes and placed back on ice. Aliquots of each extract were removed for the GLISA assay and for protein determinations. All protein concentrations were within 10%, and the extracts were used at the achieved concentrations (equates to 15 μg total protein per well). The GLISA assay was performed using the reagents supplied in the kit.
# [1] = test system: human retinal endothelial cells; test: TER of retinal endothelial cell monolayers with danazol, steroid receptor antagonists and hormones (Example 10); settings: for TER at 5 minutes: None 250.30; for TER at 60 minutes: None 251.00; for TER at 30 minutes: None 262.31; for TER at 24 Hours: None 287.09
# [2] = test system: human retinal endothelial cells; test: TER of retinal endothelial cell monolayers with danazol and steroid receptor antagonists (Example 6); settings: for TER at 30 minutes: None 216.22; for TER at 120 minutes: None 234.23; for TER at 60 minutes: None 249.25; for TER at 24 Hours: None 312.31
# HUVECs = test: HUVEC invasion (BioCoat Matrigel Invasion Chambers); format: cell-based, human; settings: 24 hours, 5% FCS; FCS raised 5674 FU±77 to 7143±516; concentration of LY294002 not specified (10 μM and 100 μM tested)
# Method: BioCoat Matrigel Invasion Chambers were purchased from BD Biosciences (San Jose, Calif.). Inserts were rehydrated at 37° C. with 500 μl HBSS for 2 hours prior to use in humidified incubator. Trypsinized HUVECs were washed twice with warm EGM-2 containing 0.1% FCS and added to the upper chamber of the invasion insert at 100,000 cells in a total volume of 250 μl. […]. Non-invasive cells were removed from the upper chamber with moistened cotton swabs and then the inserts were washed twice with HBSS. The inserts were then submerged in 10 μM calcein AM prepared in HBSS and incubated for 4 hours. Fluorescence was determined in a microplate reader at 485 nm excitation and 595 nm emission.
# All data is presented as representative experiment done in triplicate. Differences between subsets were analyzed using student t-test in Microsoft Excel. P<0.05 was considered statistically significant.
# [3] = test system: human retinal endothelial cells; test: Actin stress fiber formation (Example 11), retinal cells
# [4] = test system: human renal glomerular microvascular endothelial cells; test: Actin stress fiber formation (Example 11), glomerular cells
# [5] = test system: human retinal endothelial cells; test: ECIS resistance (Example 12), retinal cells
# [6] = test system: human retinal endothelial cells; test: Actin stress fiber formation, rhodamine-phalloidin staining, TNFα (Example 7); settings: TNFα 50 ng/ml, 30 minutes
# VE-Cadherin = test: VE-cadherin phosphorylation (immunoprecipitation, Pro-Q diamond / SYPRO ruby densitometry); format: cell-based, human; settings: VEGF 50 ng/ml
# Method: The plates were immediately treated to lyse the cells as follows. PBS and the lysis buffer (PBS containing 1% Triton X-100 supplemented with phosphatase inhibitor solutions 1 and 2 (Sigma), protease inhibitor (Sigma) and sodium orthovanadate at a final concentration of 2 mM) were cooled to 4° C. The cells were washed two times with 5 ml of the ice cold PBS and then lysed in 500 μl of the ice cold lysis buffer. The resulting protein extracts were transferred to 1.7 ml microcentrifuge tubes, and cell debris was removed by spinning at 4° C. at 10,000 rpm for 10 minutes. Then, 450 μl of the cleared solution was transferred to tubes containing 25 μl of Protein Dynabeads (Invitrogen) coated with 10 μl C19 anti-VE cadherin polyclonal antibody (Santa Cruz Biotechnology) (coating performed following manufacturer's protocol). The extracts and beads were then incubated overnight at 4° C. on an orbital shaker to capture VE cadherin from the extracts. The beads were then washed four times with ice cold lysis buffer. To release the protein from the beads, they were heated for 10 minutes at 75° C. in SDS loading dye containing 20% reducing dye (Invitrogen).
# The released proteins were separated in 4-20% polyacrylamide gels (Invitrogen) at 120 volts for 1 hour. To determine phosphorylation and total protein in the gels, Pro-Q diamond (Invitrogen) and SYPRO ruby (Invitrogen) protein staining were sequentially performed following the manufacturer's protocol. The gels were photographed and densitometry performed using a Kodak imaging station.
# [7] = test system: human retinal endothelial cells; test: Actin stress fiber formation, rhodamine-phalloidin staining, VEGF (Example 8); format: cell-based; settings: VEGF 25 ng/ml, 30 minutes
# Method: . […] To counter-stain for nuclei, 100 μl of a 3 μM DAPI (4,6-diamidino-2-phenylindole, dilactate (Invitrogen)) solution was added to each well. After 5 minutes, the cells were washed two times with 100 μl PBS.
# [8] = passage 12 cells, 1.0 μM, no thrombin, Untreated 0.455
# [9] = passage 12 cells, 0.1 U/ml Thrombin + 1.0 μM compound
# [10] = 10 nM hormone, alone or followed by 0.1 μM Danazol
# [11] = 0.1 μM of each additive, background subtracted, divided by 0.33 cm^2
# [12] = 10.0 μM LY294002, alone or followed by 0.1 μM Danazol
# [13] = passage 8 cells, 0.1 U/ml Thrombin + 10.0 μM compound
# [14] = passage 12 cells, 0.1 U/ml Thrombin + 10.0 μM compound
# [15] = S1P 1 μM alone, beginning at 15 minutes, strongest at 3 hours
# [16] = 15 minutes, ethanol control 1.00
molecule,measurement,setting,value
"C[C@@H]1C[C@H]2[C@@H]3CCC4=CC(=O)C=C[C@]4(C)[C@@]3(F)[C@@H](O)C[C@]2(C)[C@@]1(O)C(=O)CO [Dexamethasone, dexamethasone]",Percent Inhibition vs. Untreated Control,"RhoA; passage 12 cells, 1.0 μM",5.83%
same,Mean OD (active RhoA),RhoA; [8],0.428
same,Mean OD (active RhoA),RhoA; [9],0.826
same,Percent Inhibition vs. Thrombin,RhoA; [9],33.48%
"C[C@]12CC[C@@H]3c4ccc(O)cc4CC[C@H]3[C@@H]1CC[C@@H]2O [Estradiol, estradiol]",TER at 5 minutes,[1]; [10],246.50
same,TER at 60 minutes,[1]; [10],250.00
same,TER at 30 minutes,[1]; [10],245.50
same,TER at 24 Hours,[1]; [10],328.33
"C[C@]12CC[C@@H]3c4ccc(O)cc4C[C@@H](CCCCCCCCC[S+]([O-])CCCC(F)(F)C(F)(F)F)[C@H]3[C@@H]1CC[C@@H]2O (some centres unmarked) [Fluvestrant, fluvestrant]",TER at 30 minutes,[2]; [11],228.23
same,TER at 120 minutes,[2]; [11],258.26
same,TER at 60 minutes,[2]; [11],270.27
same,TER at 24 Hours,[2]; [11],336.34
same,TER at 5 minutes,[1]; [11],223.47
same,TER at 60 minutes,[1]; [11],243.99
same,TER at 30 minutes,[1]; [11],251.50
same,TER at 24 Hours,[1]; [11],279.28
"CC(C)(O)C(=O)Nc1ccc([N+](=O)[O-])c(C(F)(F)F)c1 [Hydroxyflutamide, hydroxyflutamide]",TER at 30 minutes,[2]; [11],177.18
same,TER at 120 minutes,[2]; [11],201.20
same,TER at 60 minutes,[2]; [11],186.19
same,TER at 24 Hours,[2]; [11],297.30
same,TER at 5 minutes,[1]; [11],190.44
same,TER at 60 minutes,[1]; [11],215.97
same,TER at 30 minutes,[1]; [11],207.46
same,TER at 24 Hours,[1]; [11],267.27
O=c1cc(N2CCOCC2)oc2c(-c3ccccc3)cccc12 [LY294002],TER at 30 minutes,[2]; [12],297.30
same,TER at 120 minutes,[2]; [12],276.28
same,TER at 60 minutes,[2]; [12],354.35
same,TER at 24 Hours,[2]; [12],345.35
same,fluorescence of invaded cells,HUVECs,5814±153 FU
same,Percent Inhibition vs. Untreated Control,"RhoA; passage 8 cells, 10.0 μM",45.32%
same,Mean OD (active RhoA),"RhoA; passage 8 cells, 10.0 μM, no thrombin, Untreated 0.102",0.056
same,Mean OD (active RhoA),RhoA; [13],0.433
same,Percent Inhibition vs. Thrombin,RhoA; [13],27.86%
same,Percent Inhibition vs. Untreated Control,"RhoA; passage 12 cells, 10.0 μM",18.70%
same,Mean OD (active RhoA),"RhoA; passage 12 cells, 10.0 μM, no thrombin, Untreated 0.455",0.370
same,Mean OD (active RhoA),RhoA; [14],0.685
same,Percent Inhibition vs. Thrombin,RhoA; [14],58.73%
"CCCCCCCCCCCCC/C=C/[C@@H](O)[C@@H](N)COP(=O)(O)O [S1P, sphingosine-1 phosphate]",F-actin staining pattern,[3]; [15],showed actin cortical rings
same,F-actin staining pattern,[4]; [15],showed actin cortical rings
same,persistence of increased ECIS,"[5]; 1 μM of each compound, monitored for 90 hours",about 3 hours
same,"start of increase of ECIS compared to untreated cells, after treatment",[5]; S1P 1 μM alone,≤ 15 min
COc1cc2ncnc(Nc3ccc(Oc4ccccc4)cc3)c2cc1OC [Src-1 Inhibitor],Percent Inhibition vs. Untreated Control,"RhoA; passage 12 cells, 1.0 μM",23.21%
same,Mean OD (active RhoA),RhoA; [8],0.349
same,Mean OD (active RhoA),RhoA; [9],0.534
same,Percent Inhibition vs. Thrombin,RhoA; [9],85.85%
"C[C@]12CC[C@H]3[C@@H](CCC4=CC(=O)CC[C@@]43C)[C@@H]1CC[C@@H]2O [Testosterone, testosterone]",TER at 5 minutes,[1]; [10],257.51
same,TER at 60 minutes,[1]; [10],225.98
same,TER at 30 minutes,[1]; [10],240.49
same,TER at 24 Hours,[1]; [10],267.27
TNFα,F-actin staining pattern,[6],strong stress fiber development with intensely staining focal points
same,F-actin staining pattern,[3]; TNFα 1 ng/ml alone,stress fibers were seen at all times
same,F-actin staining pattern,[4]; TNFα 1 ng/ml alone,stress fibers were seen at all times
Thrombin,Mean OD (active RhoA),"RhoA; passage 8 cells, 0.1 U/ml Thrombin alone, Untreated 0.102",0.561
same,Mean OD (active RhoA),"RhoA; passage 12 cells, 0.1 U/ml Thrombin alone, Untreated 0.455",1.013
VEGF,Ratio phosphorylated: total protein,"VE-Cadherin; 15 minutes, ethanol control 0.215",0.481
same,Relative intensity - ProQ results (phosphorylated protein),VE-Cadherin; [16],1.89
same,Relative intensity - SYPRO results (total protein),VE-Cadherin; [16],0.84
same,fold increase of ratio phosphorylated: total protein,VE-Cadherin; versus ethanol control,(2.24 fold
same,F-actin staining pattern,[7],strong stress fiber development
